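Test compounds were applied to cells in 96-well plates for 48 hours at 5 doses. The concentration for full growth arrest is given as TGI.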
How the values were obtained:
Test in all cases: growth of human tumour cells (NCI), 48 h
[1] = test system: HOP-92 NSCLC
[2] = test system: SK-MEL-2 melanoma
[3] = test system: SF-539 CNS
[4] = test system: SF-295 CNS
[5] = test system: LXFL 529 NSCLC
[6] = test system: UO-31 renal
[7] = test system: HT29 colon
[8] = test system: CCRF-CEM leukemia
[9] = test system: 786-0 renal
[10] = test system: HOP-62 NSCLC
[11] = test system: HCC-2998 colon
[12] = test system: DLD-1 colon
[13] = test system: ACHN renal
[14] = test system: OVCAR-4 ovarian
[15] = test system: SK-MEL-28 melanoma
[16] = test system: LOX IMVI melanoma
[17] = test system: HL-60(TB) leukemia
[18] = test system: A498 renal
[19] = test system: OVCAR-5 ovarian
[20] = test system: SW-620 colon
[21] = test system: SNB-19 CNS
[22] = test system: SK-MEL-5 melanoma
[23] = test system: A549 NSCLC
[24] = test system: MOLT-4 leukemia
[25] = test system: COLO 205 colon
[26] = test system: NCI-H23 lung
[27] = test system: HCT-15 colon
[28] = test system: DMS 114 small cell lung
[29] = test system: SN12C renal
[30] = test system: UACC-62 melanoma
[31] = test system: U251 CNS
[32] = test system: SK-OV-3 ovarian
[33] = test system: EKVX NSCLC
[34] = test system: KM20L2 colon
[35] = test system: M14 melanoma
[36] = test system: TK-10 renal
[37] = test system: SF-268 CNS
[38] = test system: KM12 colon
[39] = test system: DMS 273 small cell lung
[40] = test system: SNB-75 CNS
[41] = test system: IGROV1 ovarian
[42] = test system: RPMI-8226 leukemia
[43] = test system: M19-MEL melanoma
[44] = test system: SNB-78 CNS
[45] = test system: K-562 leukemia
[46] = test system: RXF 393 renal
[47] = test system: HCT-116 colon
[48] = test system: NCI-H460 lung
[49] = test system: NCI-H522 lung
[50] = test system: NCI-H226 lung
[51] = test system: OVCAR-8 ovarian
[52] = test system: OVCAR-3 ovarian
[53] = test system: CAKI-1 renal
[54] = test system: MALME-3M melanoma
[55] = test system: SR leukemia
[56] = test system: UACC-257 melanoma
[57] = test system: XF 498 CNS

`COc1ccc(C(N)=O)c(OC)c1OCc1ccccc1` was tested, and the TGI [1] was greater than 100 µM, the TGI [2] was greater than 100 µM and the TGI [3] was greater than 100 µM. It also gave a TGI [4] greater than 100 µM, a TGI [5] greater than 100 µM and a TGI [6] greater than 100 µM. It also gave a TGI [7] greater than 100 µM, a TGI [8] greater than 100 µM and a TGI [9] greater than 100 µM. For the same compound, the TGI [10] was greater than 100 µM, the TGI [11] was greater than 100 µM and the TGI [12] was greater than 100 µM. It also gave a TGI [13] greater than 100 µM, a TGI [14] greater than 100 µM and a TGI [15] greater than 100 µM. It also gave a TGI [16] greater than 100 µM, a TGI [17] greater than 100 µM and a TGI [18] greater than 100 µM. For the same compound, the TGI [19] was greater than 100 µM, the TGI [20] was greater than 100 µM and the TGI [21] was greater than 100 µM. The TGI [22] was greater than 100 µM, the TGI [23] was greater than 100 µM and the TGI [24] was greater than 100 µM. It also gave a TGI [25] greater than 100 µM, a TGI [26] greater than 100 µM and a TGI [27] greater than 100 µM. The TGI [28] was greater than 100 µM, the TGI [29] was greater than 100 µM and the TGI [30] was greater than 100 µM. It also gave a TGI [31] greater than 100 µM, a TGI [32] greater than 100 µM and a TGI [33] greater than 100 µM. The TGI [34] was greater than 100 µM, the TGI [35] was greater than 100 µM and the TGI [36] was greater than 100 µM. For the same compound, the TGI [37] was greater than 100 µM, the TGI [38] was greater than 100 µM and the TGI [39] was greater than 100 µM. It also gave a TGI [40] greater than 100 µM, a TGI [41] greater than 100 µM and a TGI [42] greater than 100 µM. The TGI [43] was greater than 100 µM, the TGI [44] was greater than 100 µM and the TGI [45] was greater than 100 µM. It also gave a TGI [46] of 7.11 µM, a TGI [47] greater than 100 µM and a TGI [48] greater than 100 µM. For the same compound, the TGI [49] was 81.7 µM, the TGI [50] was greater than 100 µM and the TGI [51] was greater than 100 µM. It also gave a TGI [52] greater than 100 µM.
Work on `COc1ccc(-c2cc(=O)c3c(OC)cccc3o2)c(OC)c1OC` yielded a TGI [1] greater than 100 µM, a TGI [53] greater than 100 µM and a TGI [2] greater than 100 µM. For the same compound, the TGI [3] was greater than 100 µM, the TGI [54] was greater than 100 µM and the TGI [4] was greater than 100 µM. It also gave a TGI [5] greater than 100 µM, a TGI [55] greater than 100 µM and a TGI [7] greater than 100 µM. It also gave a TGI [56] greater than 100 µM, a TGI [8] greater than 100 µM and a TGI [9] greater than 100 µM. For the same compound, the TGI [10] was greater than 100 µM, the TGI [11] was greater than 100 µM and the TGI [12] was greater than 100 µM. The TGI [13] was greater than 100 µM, the TGI [14] was greater than 100 µM and the TGI [15] was greater than 100 µM. For the same compound, the TGI [16] was greater than 100 µM, the TGI [17] was greater than 100 µM and the TGI [18] was greater than 100 µM. The TGI [19] was greater than 100 µM, the TGI [20] was greater than 100 µM and the TGI [22] was greater than 100 µM. It also gave a TGI [23] greater than 100 µM, a TGI [24] greater than 100 µM and a TGI [25] greater than 100 µM. It also gave a TGI [26] greater than 100 µM, a TGI [27] greater than 100 µM and a TGI [28] greater than 100 µM. It also gave a TGI [29] greater than 100 µM, a TGI [30] greater than 100 µM and a TGI [31] greater than 100 µM. For the same compound, the TGI [32] was greater than 100 µM, the TGI [34] was greater than 100 µM and the TGI [35] was greater than 100 µM. For the same compound, the TGI [36] was greater than 100 µM, the TGI [37] was greater than 100 µM and the TGI [38] was greater than 100 µM. The TGI [39] was greater than 100 µM, the TGI [40] was 74.4 µM and the TGI [41] was greater than 100 µM. It also gave a TGI [42] greater than 100 µM, a TGI [43] greater than 100 µM and a TGI [44] greater than 100 µM. The TGI [45] was greater than 100 µM, the TGI [46] was greater than 100 µM and the TGI [47] was greater than 100 µM. It also gave a TGI [48] greater than 100 µM, a TGI [49] greater than 100 µM and a TGI [50] greater than 100 µM. For the same compound, the TGI [51] was greater than 100 µM and the TGI [52] was greater than 100 µM.
With `O=C(Cn1ccnc1[N+](=O)[O-])c1ccccc1` the TGI [1] was greater than 100 µM, the TGI [53] was greater than 100 µM and the TGI [2] was greater than 100 µM. It also gave a TGI [3] greater than 100 µM, a TGI [54] greater than 100 µM and a TGI [4] greater than 100 µM. The TGI [5] was greater than 100 µM, the TGI [6] was greater than 100 µM and the TGI [7] was greater than 100 µM. For the same compound, the TGI [56] was greater than 100 µM, the TGI [8] was greater than 100 µM and the TGI [9] was greater than 100 µM. The TGI [10] was greater than 100 µM, the TGI [11] was greater than 100 µM and the TGI [57] was greater than 100 µM. For the same compound, the TGI [12] was greater than 100 µM, the TGI [13] was greater than 100 µM and the TGI [14] was greater than 100 µM. For the same compound, the TGI [15] was greater than 100 µM, the TGI [16] was greater than 100 µM and the TGI [17] was greater than 100 µM. For the same compound, the TGI [18] was greater than 100 µM, the TGI [19] was greater than 100 µM and the TGI [20] was greater than 100 µM. It also gave a TGI [21] greater than 100 µM, a TGI [22] greater than 100 µM and a TGI [23] greater than 100 µM. It also gave a TGI [24] greater than 100 µM, a TGI [25] greater than 100 µM and a TGI [26] greater than 100 µM. For the same compound, the TGI [27] was greater than 100 µM, the TGI [29] was greater than 100 µM and the TGI [30] was greater than 100 µM. The TGI [32] was greater than 100 µM, the TGI [33] was greater than 100 µM and the TGI [34] was greater than 100 µM. For the same compound, the TGI [35] was greater than 100 µM, the TGI [36] was greater than 100 µM and the TGI [37] was greater than 100 µM. It also gave a TGI [38] greater than 100 µM, a TGI [39] greater than 100 µM and a TGI [40] greater than 100 µM. For the same compound, the TGI [41] was greater than 100 µM, the TGI [42] was greater than 100 µM and the TGI [43] was greater than 100 µM. It also gave a TGI [45] greater than 100 µM, a TGI [46] greater than 100 µM and a TGI [48] greater than 100 µM. The TGI [49] was greater than 100 µM, the TGI [50] was greater than 100 µM and the TGI [51] was greater than 100 µM. It also gave a TGI [52] greater than 100 µM.

Reference: PubChem BioAssay (NCI)
